Source: the NIST ThermoML archive (doi:10.1021/je034218n)
± gives the expanded uncertainty stated by the source.

Settings: Liquid, vibrating tube

CCOCCOCCO [3,6-dioxa-1-octanol]
mass density (283.15 K, 100 kPa): 997.7 ± 0.5 kg/m3
mass density (283.15 K, 1000 kPa): 998.2 ± 0.5 kg/m3
mass density (283.15 K, 2500 kPa): 999.1 ± 0.5 kg/m3
mass density (283.15 K, 5000 kPa): 1000.6 ± 0.5 kg/m3
mass density (283.15 K, 7500 kPa): 1002 ± 0.5 kg/m3
mass density (283.15 K, 10000 kPa): 1003.4 ± 0.5 kg/m3
mass density (283.15 K, 15000 kPa): 1006.1 ± 0.5 kg/m3
mass density (283.15 K, 20000 kPa): 1008.8 ± 0.5 kg/m3
mass density (283.15 K, 25000 kPa): 1011.3 ± 0.5 kg/m3
mass density (293.15 K, 100 kPa): 988.4 ± 0.5 kg/m3
mass density (293.15 K, 1000 kPa): 988.9 ± 0.5 kg/m3
mass density (293.15 K, 2500 kPa): 989.8 ± 0.5 kg/m3
mass density (293.15 K, 5000 kPa): 991.3 ± 0.5 kg/m3
mass density (293.15 K, 7500 kPa): 992.8 ± 0.5 kg/m3
mass density (293.15 K, 10000 kPa): 994.3 ± 0.5 kg/m3
mass density (293.15 K, 15000 kPa): 997.2 ± 0.5 kg/m3
mass density (293.15 K, 20000 kPa): 999.9 ± 0.5 kg/m3
mass density (293.15 K, 25000 kPa): 1002.6 ± 0.5 kg/m3
mass density (303.15 K, 100 kPa): 979.5 ± 0.5 kg/m3
mass density (303.15 K, 1000 kPa): 980.1 ± 0.5 kg/m3
mass density (303.15 K, 2500 kPa): 981.1 ± 0.5 kg/m3
mass density (303.15 K, 5000 kPa): 982.6 ± 0.5 kg/m3
mass density (303.15 K, 7500 kPa): 984.2 ± 0.5 kg/m3
mass density (303.15 K, 10000 kPa): 985.8 ± 0.5 kg/m3
mass density (303.15 K, 15000 kPa): 988.8 ± 0.5 kg/m3
mass density (303.15 K, 20000 kPa): 991.7 ± 0.5 kg/m3
mass density (303.15 K, 25000 kPa): 994.6 ± 0.5 kg/m3
mass density (313.15 K, 100 kPa): 970.6 ± 0.5 kg/m3
mass density (313.15 K, 1000 kPa): 971.2 ± 0.5 kg/m3
mass density (313.15 K, 2500 kPa): 972.2 ± 0.5 kg/m3
mass density (313.15 K, 5000 kPa): 973.9 ± 0.5 kg/m3
mass density (313.15 K, 7500 kPa): 975.5 ± 0.5 kg/m3
mass density (313.15 K, 10000 kPa): 977.1 ± 0.5 kg/m3
mass density (313.15 K, 15000 kPa): 980.3 ± 0.5 kg/m3
mass density (313.15 K, 20000 kPa): 983.4 ± 0.5 kg/m3
mass density (313.15 K, 25000 kPa): 986.3 ± 0.5 kg/m3
mass density (323.15 K, 100 kPa): 961.5 ± 0.5 kg/m3
mass density (323.15 K, 1000 kPa): 962.1 ± 0.5 kg/m3
mass density (323.15 K, 2500 kPa): 963.2 ± 0.5 kg/m3
mass density (323.15 K, 5000 kPa): 965 ± 0.5 kg/m3
mass density (323.15 K, 7500 kPa): 966.8 ± 0.5 kg/m3
mass density (323.15 K, 10000 kPa): 968.5 ± 0.5 kg/m3
mass density (323.15 K, 15000 kPa): 971.9 ± 0.5 kg/m3
mass density (323.15 K, 20000 kPa): 975.1 ± 0.5 kg/m3
mass density (323.15 K, 25000 kPa): 978.2 ± 0.5 kg/m3
mass density (333.15 K, 100 kPa): 952.4 ± 0.5 kg/m3
mass density (333.15 K, 1000 kPa): 953.1 ± 0.5 kg/m3
mass density (333.15 K, 2500 kPa): 954.3 ± 0.5 kg/m3
mass density (333.15 K, 5000 kPa): 956.1 ± 0.5 kg/m3
mass density (333.15 K, 7500 kPa): 958 ± 0.5 kg/m3
mass density (333.15 K, 10000 kPa): 959.7 ± 0.5 kg/m3
mass density (333.15 K, 15000 kPa): 963.2 ± 0.5 kg/m3
mass density (333.15 K, 20000 kPa): 966.5 ± 0.5 kg/m3
mass density (333.15 K, 25000 kPa): 969.8 ± 0.5 kg/m3
mass density (343.15 K, 100 kPa): 943.4 ± 0.5 kg/m3
mass density (343.15 K, 1000 kPa): 944.1 ± 0.5 kg/m3
mass density (343.15 K, 2500 kPa): 945.3 ± 0.5 kg/m3
mass density (343.15 K, 5000 kPa): 947.3 ± 0.5 kg/m3
mass density (343.15 K, 7500 kPa): 949.2 ± 0.5 kg/m3
mass density (343.15 K, 10000 kPa): 951.1 ± 0.5 kg/m3
mass density (343.15 K, 15000 kPa): 954.8 ± 0.5 kg/m3
mass density (343.15 K, 20000 kPa): 958.3 ± 0.5 kg/m3
mass density (343.15 K, 25000 kPa): 961.6 ± 0.5 kg/m3
mass density (353.15 K, 100 kPa): 934.1 ± 0.5 kg/m3
mass density (353.15 K, 1000 kPa): 934.9 ± 0.5 kg/m3
mass density (353.15 K, 2500 kPa): 936.1 ± 0.5 kg/m3
mass density (353.15 K, 5000 kPa): 938.2 ± 0.5 kg/m3
mass density (353.15 K, 7500 kPa): 940.2 ± 0.5 kg/m3
mass density (353.15 K, 10000 kPa): 942.2 ± 0.5 kg/m3
mass density (353.15 K, 15000 kPa): 946 ± 0.5 kg/m3
mass density (353.15 K, 20000 kPa): 949.7 ± 0.5 kg/m3
mass density (353.15 K, 25000 kPa): 953.2 ± 0.5 kg/m3

COCCOCCO [2-(2-methoxyethoxy)ethanol]
mass density (283.15 K, 100 kPa): 1028.5 ± 0.5 kg/m3
mass density (283.15 K, 1000 kPa): 1029 ± 0.5 kg/m3
mass density (283.15 K, 2500 kPa): 1029.8 ± 0.5 kg/m3
mass density (283.15 K, 5000 kPa): 1031.2 ± 0.5 kg/m3
mass density (283.15 K, 7500 kPa): 1032.5 ± 0.5 kg/m3
mass density (283.15 K, 10000 kPa): 1033.9 ± 0.5 kg/m3
mass density (283.15 K, 15000 kPa): 1036.4 ± 0.5 kg/m3
mass density (283.15 K, 20000 kPa): 1039 ± 0.5 kg/m3
mass density (283.15 K, 25000 kPa): 1041.4 ± 0.5 kg/m3
mass density (293.15 K, 100 kPa): 1019.5 ± 0.5 kg/m3
mass density (293.15 K, 1000 kPa): 1020 ± 0.5 kg/m3
mass density (293.15 K, 2500 kPa): 1020.9 ± 0.5 kg/m3
mass density (293.15 K, 5000 kPa): 1022.3 ± 0.5 kg/m3
mass density (293.15 K, 7500 kPa): 1023.7 ± 0.5 kg/m3
mass density (293.15 K, 10000 kPa): 1025.2 ± 0.5 kg/m3
mass density (293.15 K, 15000 kPa): 1027.9 ± 0.5 kg/m3
mass density (293.15 K, 20000 kPa): 1030.5 ± 0.5 kg/m3
mass density (293.15 K, 25000 kPa): 1033.1 ± 0.5 kg/m3
mass density (303.15 K, 100 kPa): 1010.8 ± 0.5 kg/m3
mass density (303.15 K, 1000 kPa): 1011.3 ± 0.5 kg/m3
mass density (303.15 K, 2500 kPa): 1012.2 ± 0.5 kg/m3
mass density (303.15 K, 5000 kPa): 1013.6 ± 0.5 kg/m3
mass density (303.15 K, 7500 kPa): 1015 ± 0.5 kg/m3
mass density (303.15 K, 10000 kPa): 1016.4 ± 0.5 kg/m3
mass density (303.15 K, 15000 kPa): 1019.3 ± 0.5 kg/m3
mass density (303.15 K, 20000 kPa): 1022.1 ± 0.5 kg/m3
mass density (303.15 K, 25000 kPa): 1024.8 ± 0.5 kg/m3
mass density (313.15 K, 100 kPa): 1002 ± 0.5 kg/m3
mass density (313.15 K, 1000 kPa): 1002.6 ± 0.5 kg/m3
mass density (313.15 K, 2500 kPa): 1003.5 ± 0.5 kg/m3
mass density (313.15 K, 5000 kPa): 1005.1 ± 0.5 kg/m3
mass density (313.15 K, 7500 kPa): 1006.7 ± 0.5 kg/m3
mass density (313.15 K, 10000 kPa): 1008.2 ± 0.5 kg/m3
mass density (313.15 K, 15000 kPa): 1011.2 ± 0.5 kg/m3
mass density (313.15 K, 20000 kPa): 1014.1 ± 0.5 kg/m3
mass density (313.15 K, 25000 kPa): 1016.9 ± 0.5 kg/m3
mass density (323.15 K, 100 kPa): 993.2 ± 0.5 kg/m3
mass density (323.15 K, 1000 kPa): 993.9 ± 0.5 kg/m3
mass density (323.15 K, 2500 kPa): 994.9 ± 0.5 kg/m3
mass density (323.15 K, 5000 kPa): 996.6 ± 0.5 kg/m3
mass density (323.15 K, 7500 kPa): 998.3 ± 0.5 kg/m3
mass density (323.15 K, 10000 kPa): 1000 ± 0.5 kg/m3
mass density (323.15 K, 15000 kPa): 1003.2 ± 0.5 kg/m3
mass density (323.15 K, 20000 kPa): 1006.2 ± 0.5 kg/m3
mass density (323.15 K, 25000 kPa): 1009.2 ± 0.5 kg/m3
mass density (333.15 K, 100 kPa): 983.9 ± 0.5 kg/m3
mass density (333.15 K, 1000 kPa): 984.6 ± 0.5 kg/m3
mass density (333.15 K, 2500 kPa): 985.6 ± 0.5 kg/m3
mass density (333.15 K, 5000 kPa): 987.4 ± 0.5 kg/m3
mass density (333.15 K, 7500 kPa): 989.1 ± 0.5 kg/m3
mass density (333.15 K, 10000 kPa): 990.8 ± 0.5 kg/m3
mass density (333.15 K, 15000 kPa): 994.1 ± 0.5 kg/m3
mass density (333.15 K, 20000 kPa): 997.2 ± 0.5 kg/m3
mass density (333.15 K, 25000 kPa): 1000.2 ± 0.5 kg/m3
mass density (343.15 K, 100 kPa): 975.2 ± 0.5 kg/m3
mass density (343.15 K, 1000 kPa): 975.8 ± 0.5 kg/m3
mass density (343.15 K, 2500 kPa): 977 ± 0.5 kg/m3
mass density (343.15 K, 5000 kPa): 978.8 ± 0.5 kg/m3
mass density (343.15 K, 7500 kPa): 980.6 ± 0.5 kg/m3
mass density (343.15 K, 10000 kPa): 982.4 ± 0.5 kg/m3
mass density (343.15 K, 15000 kPa): 985.9 ± 0.5 kg/m3
mass density (343.15 K, 20000 kPa): 989.2 ± 0.5 kg/m3
mass density (343.15 K, 25000 kPa): 992.4 ± 0.5 kg/m3
mass density (353.15 K, 100 kPa): 965.7 ± 0.5 kg/m3
mass density (353.15 K, 1000 kPa): 966.4 ± 0.5 kg/m3
mass density (353.15 K, 2500 kPa): 967.6 ± 0.5 kg/m3
mass density (353.15 K, 5000 kPa): 969.5 ± 0.5 kg/m3
mass density (353.15 K, 7500 kPa): 971.4 ± 0.5 kg/m3
mass density (353.15 K, 10000 kPa): 973.3 ± 0.5 kg/m3
mass density (353.15 K, 15000 kPa): 976.9 ± 0.5 kg/m3
mass density (353.15 K, 20000 kPa): 980.4 ± 0.5 kg/m3
mass density (353.15 K, 25000 kPa): 983.7 ± 0.5 kg/m3
